Reference: patent US20120208873A1, “TEA POLYPHENOLS PRODUCTS FOR CEASING SMOKING AND TREATING AND/OR PREVENTING NICOTINE OR NICOTINE-DERIVED COMPOUNDS OR ESTROGEN INDUCED BREAST CANCER” (priority 2011, published 2012)
Where two headings read alike, the source gives them in different places.

Tests used:
[1] = test system: α9-nAChR promoter; assay: α9-nAChR promoter luciferase activity assay in MCF-7 cells; assay type: cell-based, human; settings: 24-h treatment, Nic 10 μM or E2 10 nM, vehicle = one-fold
Procedure: All α9-nAChR promoter—luciferase gene fusions were made in the pGL3-Basic vector (Promega, Madison, Wis., USA) by introducing the appropriate α9-nAChR promoter fragments into the polylinker upstream of the luciferase gene. These fragments were generated with restriction enzymes and cloned directly into pGL3-Basic or subcloned first in pBluescript and then transferred to pGL3-Basic. Deletion analysis of the most promoter-proximal region was performed by generating either appropriate restriction enzyme fragments or PCR fragments with suitable sense oligonucleotides and an antisense primer (5′-[…]-3′ (SEQ ID NO:1)) that anneals to the pGL3-Basic vector downstream of the site of transcription initiation.
MCF-7 cells were plated in 6-well plates. Cells were transiently cotransfected the next day with 1.5 μg of PGL3-Basic plasmid containing the full-length α9-nAChR promoter and 0.1 μg of the RLTK plasmid (Promega) using an MP-100 microporator (Digital Bio), according to the manufacturer's instructions. After incubation for 24 h, the medium was changed to culture medium containing 10% FBS or 0.1% FB S with or without Nic. Cells were lysed 24 h later with 1× Reporter Lysis Buffer (Promega) and stored frozen at −20° C. overnight. Luciferase activity was determined by testing 50 μL of the cell lysate and 50 μL of the Luciferase Assay Reagent (Promega) using a HIDEX Chameleon Microplate Reader. Relative luciferase units were normalized to renilla luciferase from the same cell lysates. Each luciferase assay experiment was performed three times.

[2] = test system: α9-nAChR protein; assay: α9-nAChR protein levels by immunoblotting in MCF-7 cells; assay type: cell-based, human
Procedure: (§1) Human mammary gland epithelial adenocarcinomas (MCF7, MDA-MB-231, AU-565, MDA-MB-453, and BT-483) and normal human mammary gland epithelial fibrocystic cell lines (MCF-10A and HBL-100) were purchased from ATCC (American Type Culture Collection, Manassas, Va., USA). MCF-7, MDA-MB-231, and MDA-MB-453 cells were maintained in DMEM, whereas BT-483 cells were maintained in RPMI-1640. Cell growth, proliferation, and viability were determined by the 3-(4,5-dimethylthiazol-2-yl)-2,5-diphenyltetrazolium (MTT) assay. The formazan product was measured by absorbance at 540 nm.
(§2) To prepare protein samples, cells were washed once with ice-cold PBS and lysed on ice in cell lysis buffer (50 mM Tris-HCl, pH 8.0, 120 mM […], 0.5% Nonidet P-40, 100 mM sodium fluoride, and 200 μM sodium orthovanadate) containing protease inhibitors as described previously (Shih, Y. L., Liu, H. C., Chen, C. S., Hsu, C. H. et al., J. Agric. Food Chem. 2010, 58, 235-241). Protein (50 μg) from each sample was resolved by 12% SDS-polyacrylamide gel electrophoresis, transferred, and analyzed by Western blotting. Antibodies were purchased from the following vendors: anti-total AKT and protein A/G agarose beads were obtained from Santa Cruz Biotechnology (Santa Cruz, Calif., USA); anti-GAPDH and anti-α9-nAChR antibodies were from Abcam (Cambridge, UK); antiphospho AKT (Ser^473), anti-c-Jun, and anti-c-Fos were from Cell Signaling Technology (Beverly, Mass., USA). The secondary antibodies, alkaline phosphatase-coupled anti-mouse, and anti-rabbit IgG were purchased from Santa Cruz Biotechnology. The specific protein complexes were identified with the chromogenic substrates nitro blue tetrazolium, and 5-bromo-4-chloro-3-indolyl-phosphate from KPL (Gaithersburg, Md., USA). In each experiment, proteins were also probed with anti-GAPDH antibodies as a protein-loading control.

[3] = test system: α9-nAChR mRNA; assay: α9-nAChR mRNA by RT-PCR / real-time PCR in MCF-7 cells; assay type: cell-based, human
Procedure: Total RNA was isolated from human cell lines using TRIzol (Invitrogen, Carlsbad, Calif., USA) according to the manufacturer's protocol. The α9-nAChR subunit-specific primers were synthesized by MB Mission BioTech (Taipei, Taiwan) as described in the previous reports (Chen, C. S., Lee, C. H., Hsieh, C. D., Ho, C. T. et al., Breast Cancer Res. Treat. 2010; Shih, Y. L., Liu, H. C., Chen, C. S., Hsu, C. H. et al., J. Agric. Food Chem. 2010, 58, 235-241). The PCR amplicons were analyzed on 1.2% agarose gels (Amresco, Solon, Ohio, USA) stained with ethidium bromide. The α9-nAChR mRNA intensity was measured and normalized to β-glucuronidase expression. Pictures of the bands were taken using an INFINITY-α digital imaging system (Vilber Lourmat, France), and band intensities were determined using PhotoCapt Version 11.01 software.

[4] = test system: p-AKT (Ser^473); assay: phosphorylated AKT by immunoblotting in MCF-7 cells; assay type: cell-based, human; settings: Nic 10 μM or E2 10 nM, 24 h
Procedure: as §2

[5] = test system: AP-1; assay: ChIP assay of AP-1 binding to the α9-nAChR promoter in MCF-7 cells; assay type: cell-based, human; settings: 24 h after Nic 10 μM
Procedure: Chromatin immunoprecipitation (ChIP) assays of cultured cells were performed as described previously (Chen, C. S., Lee, C. H., Hsieh, C. D., Ho, C. T. et al., Breast Cancer Res. Treat. 2010; Shih, Y. L., Liu, H. C., Chen, C. S., Hsu, C. H. et al., J. Agric. Food Chem. 2010, 58, 235-241). Briefly, after various regimens of Nic treatment, the cells were fixed with a final concentration of 1% formaldehyde directly added to the cell culture medium at 25° C. for 15 min. The crosslinking reaction was terminated with 0.125 M glycine for 5 min, and the cells were collected into a new Eppendorf tube. The cell lysate was sonicated three times with 10 s bursts to yield input DNA enriched for fragments around 1000 bp in size. A c-Jun (AP-1) antibody (Santa Cruz Biotechnology) was used for the immunoprecipitation reactions. Primers, which detect the a9-nAChR promoter regions, amplified a region from −960 to −1 for 32 cycles (forward: 5′-ATGCAATG CAAGCCTGAGCT-3′ (SEQ ID NO:2) and reverse: 5′-TATA-[…]-3′ (SEQ ID NO:3)). The PCR products were then separated and analyzed by agarose gel electrophoresis.

[6] = test system: MCF-7 cells; assay: Cell proliferation (MTT assay) in MCF-7 cells; assay type: cell-based, human; settings: Nic 10 μM
Procedure: as §1

[7] = test system: MCF-10A cells; assay: Cell proliferation (MTT assay) in normal MCF-10A cells; assay type: cell-based, human; settings: Nic 10 μM or EGCG 10-25 μM
Procedure: as §1

[8] = cited from earlier work
[9] = molecular target: T1, α9-nAChR (Homo sapiens, UniProt Q9UGM1); settings: MCF-7 cells, previous results, cited from earlier work
T1 construct: breast cancer cell proliferation induced by Nic could be mediated through endogenous α9-nAChR; endogenous in cells; host or cells: MCF-7 cell monolayers: wild type, scramble control (Sc) and α9-nAChR siRNA knockdown (Si) clones
T1 sequence (Q9UGM1 26-479 limits assumed): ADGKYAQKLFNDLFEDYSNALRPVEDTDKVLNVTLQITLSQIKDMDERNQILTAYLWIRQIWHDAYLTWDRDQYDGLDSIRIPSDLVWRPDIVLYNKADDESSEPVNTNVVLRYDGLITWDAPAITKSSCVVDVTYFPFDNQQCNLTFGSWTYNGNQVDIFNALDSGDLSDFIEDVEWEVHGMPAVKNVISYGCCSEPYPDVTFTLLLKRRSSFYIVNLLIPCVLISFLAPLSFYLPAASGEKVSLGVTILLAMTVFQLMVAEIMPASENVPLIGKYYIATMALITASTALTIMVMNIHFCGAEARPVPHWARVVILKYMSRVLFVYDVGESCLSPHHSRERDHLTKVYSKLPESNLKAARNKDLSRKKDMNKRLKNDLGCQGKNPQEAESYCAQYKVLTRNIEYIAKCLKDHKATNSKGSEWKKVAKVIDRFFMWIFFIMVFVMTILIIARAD

Structure (SMILES): C[C@]12CC[C@@H]3c4ccc(O)cc4CC[C@H]3[C@@H]1CC[C@@H]2O [E2, estradiol]
- induction of full-length α9-nAChR promoter luciferase activity [1]: 2.3 fold

Structure (SMILES): O=c1cc(N2CCOCC2)oc2c(-c3ccccc3)cccc12 [LY294002]
- Nic- and E2-induced upregulation of α9-nAChR protein after inhibitor pretreatment ([2]; MCF-7, 24 h pretreatment (LY294002 25 μM or EGCG 10 μM), then Nic 10 μM or E2 10 nM 24 h): not significantly inhibited

Structure (SMILES): CN(CCCC(=O)c1cccnc1)N=O [NNK, 4-(methylnitrosamino)-1-(3-pyridyl)-1-butanone]
- α9-nAChR protein level ([2]; MCF-7, Nic 0.1-10 μM, NNK 0.1-10 μM or E2 1-200 nM, 24 h, dose-dependent): significantly induced

Structure (SMILES): CN1CCCC1c1cccnc1 (centres unmarked) [Nic, nicotine]
- time after Nic treatment at which significant increase in α9-nAChR protein level was detected [2]: 6 h
- α9-nAChR protein level [2]: significantly induced
- time after Nic treatment at which significant increase in α9-nAChR mRNA level was detected ([3]; Nic 1 μM time course): 6 h
- α9-nAChR mRNA expression (real-time PCR) ([3]; Nic 10 μM or E2 10 nM, 24 h): significantly upregulated
- levels of p-AKT (Ser^473) [4]: significantly increased
- induction of full-length α9-nAChR promoter luciferase activity [1]: 41.8 fold
- binding of AP-1 to the α9-nAChR promoter [5]: increased binding
- cellular proliferation rates in wild-type (C) and scrambled vector control (Sc) cells ([6]; MCF-7 (C) and (Sc)): significantly increased
- breast cancer cell growth ([6]; MCF-7, 24 h): significantly stimulated
- Nic-induced growth effects in α9-nAChR siRNA knockdown (Si) cells ([6]; MCF-7 α9-nAChR (Si)): almost completely attenuated
- cell number in normal breast epithelial cells [7]: no changes
- Nic concentration in gastric juices ([8]; in vivo): > 800 ng/mL
- Nic concentration in plasma ([8]; in vivo): about 15 ng/mL
- Nic concentration in saliva ([8]; in vivo): > 1300 ng/mL
- saliva concentration of nicotine ([8]; in vivo): 1 mM
- serum concentration of nicotine ([8]; in vivo): 10 to 100 µM
- steady-state serum concentration of nicotine ([8]; in vivo): 200 nM
- inhaled Nic absorbed systemically during smoking ([8]; studies using ^14C-Nic): 80-90%

Structure (SMILES): CN1CCCC1c1cccnc1 [[^3H]-Nic, L-(−)-[N-methyl-^3H]-Nic]
- Kd ([9]; read-out: dissociation constant (Kd) of [^3H]-Nic binding): 3 nM

Structure (SMILES): [3H]CN1CCCC1c1cccnc1 [[^3H]-Nic, L-(−)-[N-methyl-^3H]-Nic]
- time at which maximum binding activity is attained [9]: 60 min
